Experimental data as given in patent US20260242419A1, “A CYCLIC PEPTIDE FOR TRAPPING INTERLEUKIN-1 BETA” (Merck Sharp & Dohme LLC, priority 2023, published 2026).
Starred links: 1 amine or outer side, 2 acyl side, 3 side chain; linkers in the order of their positions; H or OH if unused. Non-standard residues stand in square brackets, D forms with d. Residues, ends and D or L forms follow the SMILES beside them. Phe(4-(5-CO2H-2-pyrimidyl)) = N[C@@H](Cc1ccc(-c2ncc(C(=O)O)cn2)cc1)C(=O)O; Phe(4-(4-Ac-piperazinyl)) = CC(=O)N1CCN(c2ccc(C[C@H](N)C(=O)O)cc2)CC1; dPro(4R-(4-pyridylmethyl)) = O=C(O)[C@H]1C[C@@H](Cc2ccncc2)CN1; dPro(3S-(4-Br-benzyl)) = O=C(O)[C@@H]1NCC[C@@H]1Cc1ccc(Br)cc1; Trp(βS-Me,4-F) = C[C@@H](c1c[nH]c2cccc(F)c12)[C@H](N)C(=O)O; Bip(4'-COOH) = N[C@@H](Cc1ccc(-c2ccc(C(=O)O)cc2)cc1)C(=O)O; Ala(1-bicyclo(1.1.1)pentyl) = N[C@@H](CC12CC(C1)C2)C(=O)O; X21 = O=C(O)c1ccc(-c2ccc(C[C@H](N[*:1])C(=O)[*:2])cn2)cc1; dPro(4R-Bzl(4-F)) = O=C(O)[C@H]1C[C@@H](Cc2ccc(F)cc2)CN1; Bip(4'-Cl) = N[C@@H](Cc1ccc(-c2ccc(Cl)cc2)cc1)C(=O)O; Trp(4-Cl) = N[C@@H](Cc1c[nH]c2cccc(Cl)c12)C(=O)O; X4 = O=C([C@H]1[C@@H](Cc2ccncc2)CCN1[*:1])[*:2]; X5 = O=C([C@H]1C[C@@H](Cc2ccccc2)CN1[*:1])[*:2]; Ala(pyrimidin-5-yl) = N[C@@H](Cc1cncnc1)C(=O)O; Phe(4-COOH) = N[C@@H](Cc1ccc(C(=O)O)cc1)C(=O)O; Pro(cis-4-F) = O=C(O)[C@@H]1C[C@H](F)CN1; Ala(4-THP) = N[C@@H](CC1CCOCC1)C(=O)O; AEF = NCCOc1ccc(C[C@H](N)C(=O)O)cc1; Dap(CONH2) = NC(=O)NC[C@H](N)C(=O)O; cisHyp = O=C(O)[C@@H]1C[C@H](O)CN1; d(αMeD) = C[C@@](N)(CC(=O)O)C(=O)O; 4Pal = N[C@@H](Cc1ccncc1)C(=O)O; aThr = C[C@H](O)[C@H](N)C(=O)O; αMeD = C[C@](N)(CC(=O)O)C(=O)O; Dab = NCC[C@H](N)C(=O)O; Dap = NC[C@H](N)C(=O)O; Aib = CC(C)(N)C(=O)O

The compounds below were run against T1, IL-1β (Homo sapiens, UniProt P01584) (assay: IL-6 assay in MRC5 cells: inhibition of IL-1β induced IL-6 secretion (AlphaLISA)). Details: inhibition of IL-1β induced IL-6 secretion in MRC5 cells; read-out: MRC5 IC50.
T1 construct: purchased BioLegend 579404
Type: cell-based
How it was run: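 Compound was pre-incubated 1 h at ambient temperature with recombinant human IL-1β at 2λ EC80 before adding human lung fibroblast MRC5 cells (3000/well) in EMEM with 0.025% BSA. After overnight culture at 37 °C, 5% CO2, secreted IL-6 in conditioned medium was measured by AlphaLISA; IC50 from 4-parameter logistic fits.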

T1 sequence (P01584 117-269): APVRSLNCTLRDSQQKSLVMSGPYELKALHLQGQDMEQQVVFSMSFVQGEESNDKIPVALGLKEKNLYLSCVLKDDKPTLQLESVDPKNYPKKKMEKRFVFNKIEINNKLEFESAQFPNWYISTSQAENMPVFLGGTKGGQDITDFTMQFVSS

IC50	SMILES
19 pM	C[C@@H](c1c[nH]c2cccc(F)c12)[C@@H]1NC(=O)[C@@H]2C[C@H](O)CN2C(=O)CNC(=O)[C@H](Cc2ccc(C(=O)O)cc2)NC(=O)[C@H](Cc2ccncc2)NC(=O)[C@H](Cc2ccc(-c3ccc(C(=O)O)cc3)cc2)NC(=O)[C@H]2C[C@@H](Cc3ccncc3)CN2C(=O)CNC(=O)[C@H](CCN)NC(=O)[C@H](CCC(N)=O)NC(=O)[C@H](CC2CCOCC2)NC(=O)[C@](C)(CC(=O)O)NC(=O)[C@H](Cc2c[nH]c3ccccc23)NC(=O)[C@H](CO)NC(=O)C(C)(C)NC1=O [Example 201] (cyclo([Bip(4'-COOH)][4Pal][Phe(4-COOH)]G[cisHyp][Trp(βS-Me,4-F)][Aib]SW[αMeD][Ala(4-THP)]Q[Dab]G[dPro(4R-(4-pyridylmethyl))]))
29 pM	C[C@@H]1NC(=O)C(C)(C)NC(=O)[C@H]([C@@H](C)c2c[nH]c3cccc(F)c23)NC(=O)[C@@H]2C[C@H](F)CN2C(=O)CNC(=O)[C@H](Cc2ccc(C(=O)O)cc2)NC(=O)[C@H](Cc2ccncc2)NC(=O)[C@H](Cc2ccc(-c3ccc(C(=O)O)cc3)cc2)NC(=O)[C@H]2C[C@@H](Cc3ccncc3)CN2C(=O)CNC(=O)[C@H](CCN)NC(=O)[C@H](CCC(N)=O)NC(=O)[C@H](Cc2cncnc2)NC(=O)C(C)(C)NC(=O)[C@H](Cc2c[nH]c3ccccc23)NC1=O [Example 41] (cyclo([4Pal][Phe(4-COOH)]G[Pro(cis-4-F)][Trp(βS-Me,4-F)][Aib]AW[Aib][Ala(pyrimidin-5-yl)]Q[Dab]G[dPro(4R-(4-pyridylmethyl))][Bip(4'-COOH)]))
49 pM	C[C@H](O)[C@@H]1NC(=O)C(C)(C)NC(=O)[C@H]([C@@H](C)c2c[nH]c3cccc(F)c23)NC(=O)[C@@H]2C[C@H](O)CN2C(=O)CNC(=O)[C@H](Cc2ccc(C(=O)O)cc2)NC(=O)[C@H](CC23CC(C2)C3)NC(=O)[C@H](Cc2ccc(-c3ccc(C(=O)O)cc3)cc2)NC(=O)[C@H]2C[C@@H](Cc3ccncc3)CN2C(=O)CNC(=O)[C@H](CCN)NC(=O)[C@H](CCC(N)=O)NC(=O)[C@H](Cc2cncnc2)NC(=O)[C@@](C)(CC(=O)O)NC(=O)[C@H](Cc2c[nH]c3ccccc23)NC1=O [Example 182] (cyclo([Bip(4'-COOH)][Ala(1-bicyclo(1.1.1)pentyl)][Phe(4-COOH)]G[cisHyp][Trp(βS-Me,4-F)][Aib][aThr]W[d(αMeD)][Ala(pyrimidin-5-yl)]Q[Dab]G[dPro(4R-(4-pyridylmethyl))]))
74 pM	C[C@@H](c1c[nH]c2cccc(F)c12)[C@@H]1NC(=O)[C@@H]2C[C@H](F)CN2C(=O)CNC(=O)[C@H](Cc2ccc(C(=O)O)cc2)NC(=O)[C@H](CC23CC(C2)C3)NC(=O)[C@H](Cc2ccc(-c3ccc(C(=O)O)cc3)nc2)NC(=O)[C@H]2C[C@@H](Cc3ccc(F)cc3)CN2C(=O)CNC(=O)[C@H](CCN)NC(=O)[C@H](CCC(N)=O)NC(=O)[C@H](CN)NC(=O)C(C)(C)NC(=O)[C@H](Cc2c[nH]c3ccccc23)NC(=O)[C@H](CCC(=O)O)NC(=O)C(C)(C)NC1=O [Example 100] (cyclo([X21][Ala(1-bicyclo(1.1.1)pentyl)][Phe(4-COOH)]G[Pro(cis-4-F)][Trp(βS-Me,4-F)][Aib]EW[Aib][Dap]Q[Dab]G[dPro(4R-Bzl(4-F))]))
44 pM	CC(=O)NCCOc1ccc(C[C@@H]2NC(=O)[C@H]3C[C@@H](Cc4ccncc4)CN3C(=O)CNC(=O)[C@H](CCN)NC(=O)[C@H](CCC(N)=O)NC(=O)[C@H](Cc3cncnc3)NC(=O)C(C)(C)NC(=O)[C@H](Cc3c[nH]c4ccccc34)NC(=O)[C@H](CCC(=O)O)NC(=O)C(C)(C)NC(=O)[C@H]([C@@H](C)c3c[nH]c4cccc(F)c34)NC(=O)[C@@H]3C[C@H](F)CN3C(=O)CNC(=O)[C@H](Cc3ccc(C(=O)O)cc3)NC(=O)[C@H](CC34CC(C3)C4)NC2=O)cc1 [Example 50] (cyclo([AEF](Ac)[Ala(1-bicyclo(1.1.1)pentyl)][Phe(4-COOH)]G[Pro(cis-4-F)][Trp(βS-Me,4-F)][Aib]EW[Aib][Ala(pyrimidin-5-yl)]Q[Dab]G[dPro(4R-(4-pyridylmethyl))]))
25 pM	CC(=O)N1CCN(c2ccc(C[C@@H]3NC(=O)[C@H]4C[C@@H](Cc5ccc(F)cc5)CN4C(=O)CNC(=O)[C@H](CCN)NC(=O)[C@H](CCC(N)=O)NC(=O)[C@H](Cc4cncnc4)NC(=O)C(C)(C)NC(=O)[C@H](Cc4c[nH]c5ccccc45)NC(=O)[C@H](CO)NC(=O)C(C)(C)NC(=O)[C@H]([C@@H](C)c4c[nH]c5cccc(F)c45)NC(=O)[C@@H]4C[C@H](F)CN4C(=O)CNC(=O)[C@H](Cc4ccc(C(=O)O)cc4)NC(=O)[C@H](Cc4ccncc4)NC3=O)cc2)CC1 [Example 183] (cyclo([Phe(4-(4-Ac-piperazinyl))][4Pal][Phe(4-COOH)]G[Pro(cis-4-F)][Trp(βS-Me,4-F)][Aib]SW[Aib][Ala(pyrimidin-5-yl)]Q[Dab]G[dPro(4R-Bzl(4-F))]))
22 pM	C[C@@H](c1c[nH]c2cccc(F)c12)[C@@H]1NC(=O)[C@@H]2C[C@H](F)CN2C(=O)CNC(=O)[C@H](Cc2ccc(C(=O)O)cc2)NC(=O)[C@H](Cc2ccncc2)NC(=O)[C@H](Cc2ccc(-c3ccc(C(=O)O)cc3)cc2)NC(=O)[C@H]2[C@@H](Cc3ccncc3)CCN2C(=O)CNC(=O)[C@H](CNC(N)=O)NC(=O)[C@H](CCC(N)=O)NC(=O)[C@H](Cc2cncnc2)NC(=O)[C@@](C)(CC(=O)O)NC(=O)[C@H](Cc2c[nH]c3cccc(Cl)c23)NC(=O)[C@H](CO)NC(=O)C(C)(C)NC1=O [Example 226] (cyclo([Bip(4'-COOH)][4Pal][Phe(4-COOH)]G[Pro(cis-4-F)][Trp(βS-Me,4-F)][Aib]S[Trp(4-Cl)][d(αMeD)][Ala(pyrimidin-5-yl)]Q[Dap(CONH2)]G[X4]))
31 pM	C[C@@H](c1c[nH]c2cccc(F)c12)[C@@H]1NC(=O)[C@@H]2C[C@H](F)CN2C(=O)CNC(=O)[C@H](Cc2ccc(C(=O)O)cc2)NC(=O)[C@H](Cc2ccncc2)NC(=O)[C@H](Cc2ccc(-c3ccc(C(=O)O)cc3)cc2)NC(=O)[C@H]2[C@@H](Cc3ccc(Br)cc3)CCN2C(=O)CNC(=O)[C@H](CCCCN)NC(=O)[C@H](CCC(N)=O)NC(=O)[C@H](Cc2cncnc2)NC(=O)C(C)(C)NC(=O)[C@H](Cc2c[nH]c3ccccc23)NC(=O)[C@H](CCC(=O)O)NC(=O)C(C)(C)NC1=O [Example 152] (cyclo([Bip(4'-COOH)][4Pal][Phe(4-COOH)]G[Pro(cis-4-F)][Trp(βS-Me,4-F)][Aib]EW[Aib][Ala(pyrimidin-5-yl)]QKG[dPro(3S-(4-Br-benzyl))]))
41 pM	C[C@@H](c1c[nH]c2cccc(F)c12)[C@@H]1NC(=O)[C@@H]2C[C@H](F)CN2C(=O)CNC(=O)[C@H](Cc2ccc(C(=O)O)cc2)NC(=O)[C@H](Cc2ccncc2)NC(=O)[C@H](Cc2ccc(-c3ncc(C(=O)O)cn3)cc2)NC(=O)[C@H]2C[C@@H](Cc3ccc(F)cc3)CN2C(=O)CNC(=O)[C@H](CCN)NC(=O)[C@H](CCC(N)=O)NC(=O)[C@H](Cc2cncnc2)NC(=O)C(C)(C)NC(=O)[C@H](Cc2c[nH]c3ccccc23)NC(=O)[C@H](CCC(=O)O)NC(=O)C(C)(C)NC1=O [Example 38] (cyclo([Phe(4-(5-CO2H-2-pyrimidyl))][4Pal][Phe(4-COOH)]G[Pro(cis-4-F)][Trp(βS-Me,4-F)][Aib]EW[Aib][Ala(pyrimidin-5-yl)]Q[Dab]G[dPro(4R-Bzl(4-F))]))
22 pM	C[C@@H](c1c[nH]c2cccc(F)c12)[C@@H]1NC(=O)[C@@H]2C[C@H](F)CN2C(=O)CNC(=O)[C@H](Cc2ccc(C(=O)O)cc2)NC(=O)[C@H](Cc2ccncc2)NC(=O)[C@H](Cc2ccc(-c3ccc(Cl)cc3)cc2)NC(=O)[C@H]2C[C@@H](Cc3ccncc3)CN2C(=O)CNC(=O)[C@H](CCN)NC(=O)[C@H](CCC(N)=O)NC(=O)[C@H](Cc2cncnc2)NC(=O)[C@@](C)(CC(=O)O)NC(=O)[C@H](Cc2c[nH]c3ccccc23)NC(=O)[C@H](CO)NC(=O)C(C)(C)NC1=O [Example 344] (cyclo([Bip(4'-Cl)][4Pal][Phe(4-COOH)]G[Pro(cis-4-F)][Trp(βS-Me,4-F)][Aib]SW[d(αMeD)][Ala(pyrimidin-5-yl)]Q[Dab]G[dPro(4R-(4-pyridylmethyl))]))
11 pM	C[C@@H](c1c[nH]c2cccc(F)c12)[C@@H]1NC(=O)[C@@H]2C[C@H](F)CN2C(=O)CNC(=O)[C@H](Cc2ccc(C(=O)O)cc2)NC(=O)[C@H](CC23CC(C2)C3)NC(=O)[C@H](Cc2ccc(-c3ccc(C(=O)O)cc3)cc2)NC(=O)[C@H]2C[C@@H](Cc3ccncc3)CN2C(=O)CNC(=O)[C@H](CCN)NC(=O)[C@H](CCC(N)=O)NC(=O)[C@H](CC2CCOCC2)NC(=O)[C@](C)(CC(=O)O)NC(=O)[C@H](Cc2c[nH]c3ccccc23)NC(=O)[C@H](CO)NC(=O)C(C)(C)NC1=O [Example 193] (cyclo([Bip(4'-COOH)][Ala(1-bicyclo(1.1.1)pentyl)][Phe(4-COOH)]G[Pro(cis-4-F)][Trp(βS-Me,4-F)][Aib]SW[αMeD][Ala(4-THP)]Q[Dab]G[dPro(4R-(4-pyridylmethyl))]))

SMILES	IC50
C[C@@H](c1c[nH]c2cccc(F)c12)[C@@H]1NC(=O)[C@@H]2C[C@H](F)CN2C(=O)CNC(=O)[C@H](Cc2ccc(C(=O)O)cc2)NC(=O)[C@H](Cc2ccncc2)NC(=O)[C@H](Cc2ccc(-c3ccc(C(=O)O)cc3)cc2)NC(=O)[C@H]2C[C@@H](Cc3ccccc3)CN2C(=O)CNC(=O)[C@H](CCN)NC(=O)[C@H](CCC(N)=O)NC(=O)[C@H](Cc2cncnc2)NC(=O)C(C)(C)NC(=O)[C@H](Cc2c[nH]c3ccccc23)NC(=O)[C@H](CCC(=O)O)NC(=O)C(C)(C)NC1=O [Example 29] (cyclo([Bip(4'-COOH)][4Pal][Phe(4-COOH)]G[Pro(cis-4-F)][Trp(βS-Me,4-F)][Aib]EW[Aib][Ala(pyrimidin-5-yl)]Q[Dab]G[X5]))	19 pM
